Target: T1, human IL-17AA (Homo sapiens, UniProt Q16552)
T1 construct: host or cells: HEK (human embryonic kidney) cells
T1 sequence (Q16552 24-155) 1: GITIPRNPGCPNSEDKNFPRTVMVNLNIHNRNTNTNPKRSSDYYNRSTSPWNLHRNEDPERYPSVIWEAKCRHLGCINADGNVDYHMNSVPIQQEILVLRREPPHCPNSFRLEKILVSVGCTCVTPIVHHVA
T1 sequence (Q16552 24-155) 2: T1 sequence (Q16552 24-155) 1
Assay: IL-8 release assay in human epithelial keratinocytes adult (HEKa)
Type: cell-based
Settings: 3 ng/ml human IL-17AA + 10 ng/ml human TNFalpha, 68-72 h, IL-8 by HTRF, read-out: Rel EC50 L-8 release assay
Procedure, shortened: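 Adult human keratinocytes in Epilife with HKGS minus hydrocortisone, treated with compound then stimulated with final 3 ng/ml HEK-derived human IL-17AA plus 10 ng/ml TNF-alpha for 68–72 h at 37 °C; TNF-alpha alone defines 100% inhibition. Secreted IL-8 by HTRF; relative IC50 and Emax from four-parameter fits.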

| SMILES | EC50 |
| --- | --- |
| Cc1n[nH]c(C)c1-c1ccc(NC(=O)[C@H](Cc2cc(-c3ccnc(N4CCCC5(COC5)C4)n3)ccc2Cl)NC(=O)C2(F)CC2)cc1 [Example 319, N-[(1S)-1-[[2-chloro-5-[2-(2-oxa-8-azaspiro[3.5]nonan-8-yl)pyrimidin-4-yl]phenyl]methyl]-2-[4-(3,5-dimethyl-1H-pyrazol-4-yl)anilino]-2-oxo-ethyl]-1-fluoro-cyclopropanecarboxamide] | < 0.1 µM |
| Cc1cnn(C)c1-c1ccc(NC(=O)[C@H](Cc2cc(-c3ccc(=O)n(C(C)C)c3)ccc2Cl)NC(=O)c2cnco2)cc1 [Example 321, N-[(1S)-1-[[2-chloro-5-(1-isopropyl-6-oxo-3-pyridyl)phenyl]methyl]-2-[4-(2,4-dimethylpyrazol-3-yl)anilino]-2-oxo-ethyl]oxazole-5-carboxamide] | > 1 µM |
| Cc1cnn(C)c1-c1ccc(NC(=O)[C@H](Cc2cc(-c3ccc(=O)n(C(C)C)c3)ccc2Cl)NC(=O)c2cn[nH]c2)cc1 [Example 323, N-[(1S)-1-[[2-chloro-5-(1-isopropyl-6-oxo-3-pyridyl)phenyl]methyl]-2-[4-(2,4-dimethylpyrazol-3-yl)anilino]-2-oxo-ethyl]-1H-pyrazole-4-carboxamide] | 0.1 to 1 µM |
| Cc1cnn(C)c1-c1ccc(NC(=O)[C@H](Cc2cc(-c3ccc(=O)n(C(C)C)c3)ccc2Cl)NC(=O)c2ccno2)cc1 [Example 324, N-[(1S)-1-[[2-chloro-5-(1-isopropyl-6-oxo-3-pyridyl)phenyl]methyl]-2-[4-(2,4-dimethylpyrazol-3-yl)anilino]-2-oxo-ethyl]isoxazole-5-carboxamide] | 0.1 to 1 µM |
| Cc1cnn(C)c1-c1ccc(NC(=O)[C@H](Cc2cc(-c3ccc(=O)n(C(C)C)c3)ccc2Cl)NC(=O)C2CCC2)cc1 [Example 325, N-[(1S)-1-[[2-chloro-5-(1-isopropyl-6-oxo-3-pyridyl)phenyl]methyl]-2-[4-(2,4-dimethylpyrazol-3-yl)anilino]-2-oxo-ethyl]cyclobutanecarboxamide] | > 1 µM |
| Cc1cnn(C)c1-c1ccc(NC(=O)[C@H](Cc2cc(-c3ccc(=O)n(C(C)C)c3)ccc2Cl)NC(=O)CCC(C)C)cc1 [Example 327, N-[(1S)-1-[[2-chloro-5-(1-isopropyl-6-oxo-3-pyridyl)phenyl]methyl]-2-[4-(2,4-dimethylpyrazol-3-yl)anilino]-2-oxo-ethyl]-4-methyl-pentanamide] | 0.1 to 1 µM |
| Cc1cnn(C)c1-c1ccc(NC(=O)[C@H](Cc2cc(-c3ccc(=O)n(C(C)C)c3)ccc2Cl)NC(=O)c2cocn2)cc1 [Example 333, N-[(1S)-1-[[2-chloro-5-(1-isopropyl-6-oxo-3-pyridyl)phenyl]methyl]-2-[4-(2,4-dimethylpyrazol-3-yl)anilino]-2-oxo-ethyl]oxazole-4-carboxamide] | > 1 µM |
| Cc1cnn(C)c1-c1ccc(NC(=O)[C@H](Cc2cc(-c3ccc(=O)n(C(C)C)c3)ccc2Cl)NC(=O)CC2CCC2)cc1 [Example 335, (2S)-3-[2-chloro-5-(1-isopropyl-6-oxo-3-pyridyl)phenyl]-2-[(2-cyclobutylacetyl)amino]-N-[4-(2,4-dimethylpyrazol-3-yl)phenyl]propanamide] | 0.1 to 1 µM |
| Cc1cnn(C)c1-c1ccc(NC(=O)[C@H](Cc2cc(-c3ccc(=O)n(C(C)C)c3)ccc2Cl)NC(=O)CC2CC2)cc1 [Example 336, (2S)-3-[2-chloro-5-(1-isopropyl-6-oxo-3-pyridyl)phenyl]-2-[(2-cyclopropylacetyl)amino]-N-[4-(2,4-dimethylpyrazol-3-yl)phenyl]propanamide] | 0.1 to 1 µM |
| Cc1cnn(C)c1-c1ccc(NC(=O)[C@H](Cc2cc(-c3ccc(=O)n(C(C)C)c3)ccc2Cl)NC(=O)c2ccon2)cc1 [Example 337, N-[(1S)-1-[[2-chloro-5-(1-isopropyl-6-oxo-3-pyridyl)phenyl]methyl]-2-[4-(2,4-dimethylpyrazol-3-yl)anilino]-2-oxo-ethyl]isoxazole-3-carboxamide] | 0.1 to 1 µM |
| Cc1n[nH]c(C)c1-c1ccc(NC(=O)[C@H](NC(=O)C2(F)CC2)[C@H](C)c2cccc(-c3ccnc(N4C[C@@H]5C[C@H]4CO5)c3)c2)cc1 [Example 340, N-[(1R,2R)-1-[[4-(3,5-dimethyl-1H-pyrazol-4-yl)phenyl]carbamoyl]-2-[3-[2-[(1S,4S)-2-oxa-5-azabicyclo[2.2.1]heptan-5-yl]-4-pyridyl]phenyl]propyl]-1-fluoro-cyclopropanecarboxamide] | 0.1 to 1 µM |
| Cc1n[nH]c(C)c1-c1ccc(NC(=O)[C@@H](NC(=O)C2(F)CC2)[C@H](C)c2cccc(-c3ccnc(N4C[C@@H]5C[C@H]4CO5)c3)c2)cc1 [Example 341, N-[(1S,2R)-1-[[4-(3,5-dimethyl-1H-pyrazol-4-yl)phenyl]carbamoyl]-2-[3-[2-[(1S,4S)-2-oxa-5-azabicyclo[2.2.1]heptan-5-yl]-4-pyridyl]phenyl]propyl]-1-fluoro-cyclopropanecarboxamide] | < 0.1 µM |

More lines, now with the values ahead:

| EC50 | SMILES |
| --- | --- |
| > 1 µM | Cc1cnn(C)c1-c1ccc(NC(=O)[C@H](Cc2cc(-c3ccc(=O)n(C(C)C)c3)ccc2Cl)NC(=O)C(C)C)cc1 [Example 328, N-[(1S)-1-[[2-chloro-5-(1-isopropyl-6-oxo-3-pyridyl)phenyl]methyl]-2-[4-(2,4-dimethylpyrazol-3-yl)anilino]-2-oxo-ethyl]-2-methyl-propanamide] |
| 0.1 to 1 µM | Cc1cnn(C)c1-c1ccc(NC(=O)[C@H](Cc2cc(-c3ccc(=O)n(C(C)C)c3)ccc2Cl)NC(=O)C2CC2)cc1 [Example 329, N-[(1S)-1-[[2-chloro-5-(1-isopropyl-6-oxo-3-pyridyl)phenyl]methyl]-2-[4-(2,4-dimethylpyrazol-3-yl)anilino]-2-oxo-ethyl]cyclopropanecarboxamide] |
| 0.1 to 1 µM | CCCC(=O)N[C@@H](Cc1cc(-c2ccc(=O)n(C(C)C)c2)ccc1Cl)C(=O)Nc1ccc(-c2c(C)cnn2C)cc1 [Example 330, N-[(1S)-1-[[2-chloro-5-(1-isopropyl-6-oxo-3-pyridyl)phenyl]methyl]-2-[4-(2,4-dimethylpyrazol-3-yl)anilino]-2-oxo-ethyl]butanamide] |
| < 0.1 µM | Cc1cnn(C)c1-c1ccc(NC(=O)[C@H](Cc2cc(-c3ccc(=O)n(C(C)C)c3)ccc2Cl)NC(=O)C2(F)CCC2)cc1 [Example 331, N-[(1S)-1-[[2-chloro-5-(1-isopropyl-6-oxo-3-pyridyl)phenyl]methyl]-2-[4-(2,4-dimethylpyrazol-3-yl)anilino]-2-oxo-ethyl]-1-fluoro-cyclobutanecarboxamide] |
| > 1 µM | Cc1cnn(C)c1-c1ccc(NC(=O)[C@H](Cc2cc(-c3ccc(=O)n(C(C)C)c3)ccc2Cl)NC(=O)C(C)C2CC2)cc1 (stereo partly drawn) [Example 332, (2S)-3-[2-chloro-5-(1-isopropyl-6-oxo-3-pyridyl)phenyl]-2-(2-cyclopropylpropanoylamino)-[4-(2,4-dimethylpyrazol-3-yl)phenyl]propanamide] |
| 0.1 to 1 µM | Cc1cnn(C)c1-c1ccc(NC(=O)[C@H](Cc2cc(-c3ccc(=O)n(C(C)C)c3)ccc2Cl)NC(=O)C2(C)CC2)cc1 [Example 334, N-[(1S)-1-[[2-chloro-5-(1-isopropyl-6-oxo-3-pyridyl)phenyl]methyl]-2-[4-(2,4-dimethylpyrazol-3-yl)anilino]-2-oxo-ethyl]-1-methyl-cyclopropanecarboxamide] |
